Experimental data as given in ChEMBL document CHEMBL5214960 (J Med Chem, 2022).
Numbering of substitutions follows the chain as printed. pIC50: −log10 of the molar value. Values after ≈ are worked out from the molar mass of the structure shown.

Tests used:
[1] = biological target: T1, Low molecular weight phosphotyrosine protein phosphatase (Homo sapiens, UniProt P24666); assay: Inhibition of His-tagged human LMW-PTP expressed in Escherichia coli BL21 using pNPP as substrate incubated for 10 mins by microplate reader based spectrophotometric analysis
T1 sequence (P24666 whole entry): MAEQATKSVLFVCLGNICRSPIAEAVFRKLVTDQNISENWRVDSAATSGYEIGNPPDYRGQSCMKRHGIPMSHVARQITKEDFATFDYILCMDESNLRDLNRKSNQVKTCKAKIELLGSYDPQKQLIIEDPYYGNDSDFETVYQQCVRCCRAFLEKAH

[2] = biological target: T2, Low molecular weight phosphotyrosine protein phosphatase (Rattus norvegicus, UniProt P41498); assay: Inhibition of N-terminal His-tagged full length rat LMW-PTP expressed in Escherichia coli BL21(DE3)
T2 sequence (P41498 whole entry): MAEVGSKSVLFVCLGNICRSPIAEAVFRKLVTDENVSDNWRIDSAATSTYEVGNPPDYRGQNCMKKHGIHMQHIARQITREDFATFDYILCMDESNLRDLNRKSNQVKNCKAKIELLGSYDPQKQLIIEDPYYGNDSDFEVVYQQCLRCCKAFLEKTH

[3] = AUC(0 to 8 hrs) in CD-1 mouse plasma at 2 mg/kg, iv measured after 8 hrs by LC-MS/MS analysis; format: ADME, organism-based; parameters: dose 2 mg/kg, time 8 hrs, route iv; conditions: in vivo
[4] = Metabolic stability in mouse hepatic microsome at 4 uM measured after 30 mins by LC-MS analysis; format: ADME; conditions: liver microsomes, read-out: Stability
CYP2D6 = CYP2D6 (Homo sapiens, UniProt P10635); assay: Inhibition of human hepatic CYP2D6 using bufuralol HCL as substrate measured after 3 mins by LC-MS analysis relative to control; format: ADME, tissue-based; parameters: concentration or dose not given beside the values; conditions: human hepatic CYP2D6 (liver), probe bufuralol HCl
Sequence of CYP2D6 (P10635 whole entry): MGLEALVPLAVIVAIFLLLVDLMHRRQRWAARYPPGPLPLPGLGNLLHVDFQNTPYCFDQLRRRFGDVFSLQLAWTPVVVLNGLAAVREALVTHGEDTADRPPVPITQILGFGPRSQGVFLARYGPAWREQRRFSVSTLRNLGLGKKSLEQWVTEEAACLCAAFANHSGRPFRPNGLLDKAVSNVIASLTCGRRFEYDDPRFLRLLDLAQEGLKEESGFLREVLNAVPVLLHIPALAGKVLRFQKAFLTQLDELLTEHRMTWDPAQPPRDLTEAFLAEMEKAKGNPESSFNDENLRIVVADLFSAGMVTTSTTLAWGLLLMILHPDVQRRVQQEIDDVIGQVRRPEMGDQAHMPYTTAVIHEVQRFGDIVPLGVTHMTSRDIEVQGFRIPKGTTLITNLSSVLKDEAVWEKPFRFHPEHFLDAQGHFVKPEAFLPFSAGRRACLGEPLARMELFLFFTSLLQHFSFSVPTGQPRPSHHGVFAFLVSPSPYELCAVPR

[5] = Half life in Sprague-Dawley rat plasma at 30 mg/kg, po measured after 24 hrs by LC-MS/MS analysis; format: ADME, organism-based; conditions: in vivo
[6] = biological target: Dual specificity protein phosphatase 23 (Homo sapiens, UniProt Q9BVJ7); assay: Inhibition of VHZ (unknown origin)
Sequence of Dual specificity protein phosphatase 23 (Q9BVJ7 whole entry): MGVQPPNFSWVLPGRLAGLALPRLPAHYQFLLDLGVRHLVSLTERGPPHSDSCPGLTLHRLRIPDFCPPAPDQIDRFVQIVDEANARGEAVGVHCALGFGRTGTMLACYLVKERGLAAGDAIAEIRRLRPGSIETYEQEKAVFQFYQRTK

[7] = Tmax in Sprague-Dawley rat plasma at 30 mg/kg, po measured after 24 hrs by LC-MS/MS analysis; format: ADME, organism-based; conditions: in vivo
[8] = Unbound Cmax in plasma of Sprague-Dawley rat at 30 mg/kg, po measured after 24 hrs by LC-MS/MS analysis; format: ADME, organism-based; conditions: in vivo
[9] = Cmax in Sprague-Dawley rat plasma at 30 mg/kg, po measured after 24 hrs by LC-MS/MS analysis; format: ADME, organism-based; parameters: time 24 hrs, dose 30 mg/kg, route po; conditions: in vivo
[10] = Oral bioavailability in CD-1 mouse plasma at 10 mg/kg measured after 8 hrs by LC-MS/MS analysis; format: ADME, organism-based; conditions: mouse, in vivo, po, 10 mg/kg, 8 h
[11] = Half life in CD-1 mouse plasma at 10 mg/kg, po measured after 8 hrs by LC-MS/MS analysis; format: ADME, organism-based; conditions: in vivo
CYP3A4 = CYP3A4 (Homo sapiens, UniProt P08684); assay: Inhibition of human hepatic CYP3A4 using midazolam as substrate measured after 3 mins by LC-MS analysis relative to control; format: ADME, tissue-based; parameters: concentration or dose not given beside the values; conditions: human hepatic CYP3A4 (liver), probe midazolam
Sequence of CYP3A4 (P08684 whole entry): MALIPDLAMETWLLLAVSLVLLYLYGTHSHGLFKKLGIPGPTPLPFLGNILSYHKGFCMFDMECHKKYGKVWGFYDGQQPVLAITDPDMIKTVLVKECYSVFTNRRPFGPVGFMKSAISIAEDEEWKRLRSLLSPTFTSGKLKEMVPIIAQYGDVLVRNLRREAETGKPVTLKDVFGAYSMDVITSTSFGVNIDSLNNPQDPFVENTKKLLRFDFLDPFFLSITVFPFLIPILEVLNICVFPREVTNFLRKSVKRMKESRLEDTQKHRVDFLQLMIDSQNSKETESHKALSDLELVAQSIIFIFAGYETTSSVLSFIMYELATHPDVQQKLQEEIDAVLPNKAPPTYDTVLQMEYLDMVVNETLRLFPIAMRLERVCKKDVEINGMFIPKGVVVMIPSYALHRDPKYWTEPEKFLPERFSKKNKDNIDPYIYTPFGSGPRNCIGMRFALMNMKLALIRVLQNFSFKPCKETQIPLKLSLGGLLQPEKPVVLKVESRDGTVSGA

[12] = biological target: T3, Low molecular weight phosphotyrosine protein phosphatase (Mus musculus, UniProt Q9D358); assay: Inhibition of N-terminal His-tagged full length mouse LMW-PTP expressed in Escherichia coli BL21(DE3) by […] analysis
T3 sequence (Q9D358 whole entry): T2 sequence (P41498 whole entry) with N35K, K65R, R80K, H158Y

CYP2C9 = CYP2C9 (Homo sapiens, UniProt P11712); assay: Inhibition of human hepatic CYP2C9 using diclofenac as substrate measured after 10 mins by LC-MS analysis relative to control; format: ADME, tissue-based; parameters: concentration or dose not given beside the values; conditions: human hepatic CYP2C9 (liver), probe diclofenac
Sequence of CYP2C9 (P11712 whole entry): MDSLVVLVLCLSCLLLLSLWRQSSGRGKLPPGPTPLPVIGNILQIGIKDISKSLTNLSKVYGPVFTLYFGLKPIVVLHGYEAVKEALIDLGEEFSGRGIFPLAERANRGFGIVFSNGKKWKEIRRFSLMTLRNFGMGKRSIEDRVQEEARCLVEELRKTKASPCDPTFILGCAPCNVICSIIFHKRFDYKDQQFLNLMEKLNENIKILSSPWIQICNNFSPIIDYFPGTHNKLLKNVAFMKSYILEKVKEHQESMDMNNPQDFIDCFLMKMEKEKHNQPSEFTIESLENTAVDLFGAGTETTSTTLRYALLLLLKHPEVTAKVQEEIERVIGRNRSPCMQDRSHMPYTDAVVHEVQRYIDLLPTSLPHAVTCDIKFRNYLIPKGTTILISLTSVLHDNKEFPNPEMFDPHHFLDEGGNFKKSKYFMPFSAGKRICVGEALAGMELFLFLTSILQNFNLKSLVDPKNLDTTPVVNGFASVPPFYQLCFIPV

[13] = Half life in CD-1 mouse plasma at 2 mg/kg, iv measured after 8 hrs by LC-MS/MS analysis; format: ADME, organism-based
[14] = AUC(0 to 12 hrs) in Sprague-Dawley rat plasma at 30 mg/kg, po measured after 24 hrs by LC-MS/MS analysis; format: ADME, organism-based; parameters: time 24 hrs, dose 30 mg/kg, route po; conditions: in vivo
[15] = Volume of distribution at steady state in CD-1 mouse plasma at 2 mg/kg, iv measured after 8 hrs by LC-MS/MS analysis; format: ADME, organism-based; conditions: in vivo
[16] = Cmax in CD-1 mouse plasma at 10 mg/kg, po measured after 8 hrs by LC-MS/MS analysis; format: ADME, organism-based; parameters: dose 10 mg/kg, time 8 hrs, route po
[17] = Aqueous solubility of compound at pH 6 by HPLC analysis; format: physicochemical; conditions: buffer
[18] = Metabolic stability in dog hepatic microsome at 4 uM measured after 30 mins by LC-MS analysis; format: ADME, Canis lupus familiaris; conditions: liver microsomes, read-out: Stability
[19] = Metabolic stability in human hepatic microsome at 4 uM measured after 30 mins by LC-MS analysis; format: ADME; conditions: liver microsomes, read-out: Stability
[20] = Inhibition of PTP-Meg2 (unknown origin); parameters: species or system Homo sapiens
[21] = Unbound Cmax in plasma of CD-1 mouse at 2 mg/kg, iv measured after 8 hrs by LC-MS/MS analysis; format: ADME, organism-based; conditions: in vivo
[22] = AUC(0 to 8 hrs) in CD-1 mouse plasma at 10 mg/kg, po measured after 8 hrs by LC-MS/MS analysis; format: ADME, organism-based; parameters: dose 10 mg/kg, time 8 hrs, route po; conditions: in vivo
[23] = Cmax in CD-1 mouse plasma at 2 mg/kg, iv measured after 8 hrs by LC-MS/MS analysis; format: ADME, organism-based; parameters: time 8 hrs, dose 2 mg/kg, route iv
[24] = Plasma protein binding in mouse assessed as unbound fraction measured after 4.5 hrs by LC-MS/MS analysis; format: ADME, cell-free
[25] = Unbound Cmax in plasma of CD-1 mouse at 10 mg/kg, po measured after 8 hrs by LC-MS/MS analysis; format: ADME, organism-based; conditions: in vivo

Structure (SMILES)	pIC50 [1]	remaining at 0.5 h, 4 µM [4] [%]	inhibition at 0.05 h (CYP2D6) [%]	inhibition at 0.05 h (CYP3A4) [%]	inhibition at 10 min (CYP2C9) [%]	remaining at 0.5 h, 4 µM [18] [%]	remaining at 0.5 h, 4 µM [19] [%]	Fu [24]	other results
O=C(CS(=O)(=O)O)Nc1nc2cccc([N+](=O)[O-])c2s1	5.82								
Cc1c(Br)cc(NC(=O)CS(=O)(=O)O)cc1Br	5.66	0	1	15	18	23	7	< 0.008	pIC50 [2]: 7.21; AUC [3]: 4.1 µM·h; t1/2 [5]: 3.6 h; pIC50 [6]: < 4.00; Tmax [7]: 1.7 h; fCmax [8]: < 85 nM; Cmax [9]: 3030 nM; F [10]: 43%; t1/2 [11]: 4.2 h; pIC50 [12]: 7.21; half-life ([13]; CD-1, mouse, plasma): 1.5 h; AUC [14]: 21.1 µM·h; Vdss [15]: 0.58 L/kg; Cmax ([16]; CD-1, mouse, plasma): 2000 nM; solubility [17]: 740 µg/mL (≈ 1910 µM); pIC50 [20]: < 4.00; fCmax [21]: < 16 nM; AUC [22]: 8.8 µM·h; Cmax [23]: 2000 nM; fCmax [25]: < 16 nM
O=C(CS(=O)(=O)O)Nc1cc(Br)cc2ccccc12	5.22								
O=C(CS(=O)(=O)O)Nc1cc(Br)cc([N+](=O)[O-])c1	5.47								
O=C(CS(=O)(=O)O)Nc1nc2ccccc2s1		3	0	6	1	11	18	0.209	solubility [17]: 530 µg/mL (≈ 1950 µM)
O=C(Nc1ccc(N2CCOCC2)c(Br)c1)NS(=O)(=O)O	8.10								
O=C(CS(=O)(=O)O)Nc1cc(C(F)(F)F)cc(C(F)(F)F)c1	5.27								
O=C(CS(=O)(=O)O)Nc1nc2ccc([N+](=O)[O-])cc2s1	6.70	4	1	0	0	7	53	0.057	solubility [17]: 590 µg/mL (≈ 1860 µM)
O=C(CS(=O)(=O)O)Nc1ccc(N2CCOCC2)c(Br)c1	5.82	3	20	36	64	11	3	0.243	pIC50 [2]: 7.44; AUC [3]: 1.72 µM·h; t1/2 [5]: 6.8 h; Tmax [7]: 1 h; fCmax [8]: 43 nM; Cmax [9]: 258 nM; F [10]: 23%; t1/2 [11]: 4.2 h; pIC50 [12]: 7.44; t1/2 ([13]; mouse, in vivo, iv, 2 mg/kg, 8 h): 0.2 h; AUC [14]: 1.23 µM·h; Vdss [15]: 0.73 L/kg; Cmax ([16]; mouse, in vivo, 8 h): 483 nM; solubility [17]: 760 µg/mL (≈ 2000 µM); fCmax [21]: 1966 nM; AUC [22]: 1.94 µM·h; Cmax [23]: 8090 nM; fCmax [25]: 117 nM
Cc1c(Br)cc(NC(=O)[C@@H](C#N)S(=O)(=O)O)cc1Br	5.36								
O=C(CS(=O)(=O)O)Nc1cc(Br)cc(Br)c1	5.22								
O=C(CS(=O)(=O)O)Nc1cc(I)cc(I)c1	5.47								
O=C(Nc1ccccc1)NS(=O)(=O)O	6.92								
N.O=C(Nc1nc2ccccc2s1)NS(=O)(=O)O	7.25	0	0	4	0	0	7	0.07	
O=C(CS(=O)(=O)O)Nc1cc(Cl)cc(Cl)c1	5.07								
O=C(CS(=O)(=O)O)Nc1cnc2ncccc2c1	5.82								
